# Experimental data from patent EP0519427A2, “N-substituted-3-iodopropiolamide, production and use thereof” (priority 1991, dated 1992).
# What was measured:
# Assay in all cases: Fungicide activity for wood fungicide (rating of fungi growth on treated wood)
# Format in all cases: cell-based
# Conditions in all cases: beech specimens dipped 3 min in fungicide solution, 4 weeks culture; rating 0 (no growth) to 3; mean of 6 specimens
# [1] = tested on: Gliocladium virens Miller, Gidden & Fosteb IFO 6355
# Procedure: (§1) This test was conducted according to Specification No.2 of Japan Wood Preserving Association, enacted in 1979 and titled "Test methods of fungicide activity for wood fungicide".
# (§2) • ① Aspergillus niger van Tieghem IFO 6341 = ATCC 6275 • ② Penicillium funiculosum Thom (formerly : Penicillium luteum Zukal) IFO 6345 = ATCC 9644 • ③ Rhizopus javanicus Takeda (formerly : Rhizopus nigricans Ehrenberg S.N. 32) IFO 6354 • ④ Aureobasidium pullulans (de Bary) Arnaud IFO 6353 = IAM (H. Iizuka, F-24) • ⑤ Gliocladium virens Miller, Gidden & Fosteb IFO 6355 = ATCC 9645 (formerly : Trichoderma viride, T.I.)
# (§3) The fungi ① , ② , ③ and ⑤ are classified as fungi imperfecti, and the fungus ④ as blue stain fungus.
# (§4) The Culture medium comprised the potato-sap agar culture medium (specified in the Japan Industrial Standard (JIS) Z 2911- 1960) of 50 ml, put in the conical flask of 100 ml, sterilized by steam at 1.4-1.6 kgf/cm² .G (137.2-156.8 KPa) for 30 minutes.
# (§5) The fungi to be used were inoculated into the culture medium specified in the previous section and were cultured at 26 ± 2 °C under the relative humidity of 70-80 % for two weeks.
# (§6) The potato sap of 50 ml, sterilized, cooled to room temperature and to which dioctyl sodium sulfosuccinate, a wetting agent, was added so as to become 0.005 %, was dropped to the fully breeding fungi layer, and was agitated with a platinum spatula in such a way that the spore was torn off. The resulting liquid filtered by sterilized gauze was the spore suspension.
# (§7) 3-5-1 A Petri dish measured 90-100 mm in diameter and 20 mm in height.
# (§8) 3-5-2 Agar liquid (which has no nutrients) of 2 % sterilized by steam was dropped onto the Petri dish sterilized by dry heat, and then was solidified.
# (§9) 3-5-3 Three mm diameter sterilized glass bars or plastic nets made of polypropylene, etc. were placed to prevent the test specimens from touching with agar directly.
# (§10) 3-6-1 The type of trees for wood specimens was beech. The cross section was of grain face, and the dimension was 20 mm wide 3 mm thick and 50 mm long.
# (§11) 3-6-2 Wood specimens were supplied with nutrients in such a way that they were dipped into the potato-sap (the one in the section 3-2, but agar was not added) for 3 minutes.
# (§12) 3-6-3 Nutrient-supplied wood specimens, after drying at 60 °C, were used for testing immediately. They were temporarily stored at 0 °C, but they were served to tests as soon as possible.
# (§13) The test specimens were of two types, treated and untreated speciments. The treated specimens referred to the one treated with fungicide. The untreated specimens were of two types, the one really untreated and the other treated with solvent only.
# (§14) 3-7-2-1 Nutrients-supplied wood specimens were dried at 60 ± 2 °C, and then their weights (W₀) were measured. Test specimens of 10-20 pieces were piled up in a one liter beaker in such a way that two specimens constant space apart from each other were alternately put on the other two specimens also constant space apart from each other. On the top of the two specimens, a weight was placed. Through the test specimens thus arranged, the fungicide solution was introduced. The level of the fungicide solution was one centimeter above the top specimens. The test specimens were dipped for three minutes after the fungicide solution introduction.
# (§15) After finishing dipping, the test specimens were wiped softly, and then the weights (W₁) were measured immediately. As control experiment, the same procedure as the above was done using solvent without fungicide.
# (§16) 3-7-2-2 The amounts of solution pick-up and fungicide pick-up were calculated with the following equations: The amount of solution absorption: RL = W₁ - W₀ [formula] The amount of fungicide absorption: Rc = RL × fungicide concentration [formula] 3-7-2-3 Wood specimens treated were placed without contacting each other, then were air-dried for two days, and then served as the treated test specimens. […]
# [2] = tested on: Penicillium funiculosum Thom IFO 6345
# Procedure: as §1, §2, §3, §4, §5, §6, §7, §8, §9, §10, §11, §12, §13, §14, §15, §16
# [3] = tested on: Rhizopus javanicus Takeda IFO 6354
# Procedure: as §1, §2, §3, §4, §5, §6, §7, §8, §9, §10, §11, §12, §13, §14, §15, §16
# [4] = tested on: Aspergillus niger van Tieghem IFO 6341
# Procedure: as §1, §2, §3, §4, §5, §6, §7, §8, §9, §10, §11, §12, §13, §14, §15, §16
# [5] = tested on: Aureobasidium pullulans (de Bary) Arnaud IFO 6353
# Procedure: as §1, §2, §3, §4, §5, §6, §7, §8, §9, §10, §11, §12, §13, §14, §15, §16
SMILES,"Average rating value, A₅ : Gliocladium virens (IFO 6355) [1]","Average rating value, A₂ : Penicillium funiculosum (IFO 6345) [2]","Average rating value, A₃ : Rhizopus javanicus (IFO 6354) [3]","Average rating value, A₁ : Aspergillus Niger (IFO 6341) [4]","Average rating value, A₄ : Aureobasidium pullulans (IFO 6353) [5]"
"CC(C)(C)NC(=O)C#CI [Example 1, N-(tert-Butyl)-3-iodopropiolamide]",0.0,0.0,2.0,0.0,0.0
"CCCCCCCCCCNC(=O)C#CI [Example 2, N-(n-Decyl)-3-iodopropiolamide]",1.3,2.0,3.0,3.0,0.0
"CCCCNC(=O)C#CI [Example 4, N-(n-Butyl)-3-iodopropiolamide]",1.0,0.0,0.0,0.0,0.0
"CCC(C)NC(=O)C#CI (centres unmarked) [Example 5, N-(sec-Butyl)-3-iodopropiolamide]",1.3,0.0,3.0,0.0,0.0
"CC(C)CNC(=O)C#CI [Example 6, N-Isobutyl-3-iodopropiolamide]",0.0,0.0,3.0,0.0,0.0
"CCCCCNC(=O)C#CI [Example 7, N-(n-Pentyl)-3-iodopropiolamide]",1.8,0.2,3.0,0.2,0.0
"CCCCCCNC(=O)C#CI [Example 8, N-(n-Hexyl)-3-iodopropiolamide]",0.2,0.0,3.0,0.3,0.0
"CCCCCCCNC(=O)C#CI [Example 9, N-(n-Heptyl)-3-iodopropiolamide]",1.5,1.0,3.0,1.7,0.3
"CCCCCCCCNC(=O)C#CI [Example 10, N-(n-Octyl)-3-iodopropiolamide]",2.2,0.3,3.0,2.7,0.0
"CCCCCCCCCNC(=O)C#CI [Example 11, N-(n-Nonyl)-3-iodopropiolamide]",2.8,1.8,3.0,3.0,1.7
